Experimental data: patent publication US12570642B2, “GLP-IR modulating compounds” (Gilead Sciences, Inc., priority 2021, dated 2026)
pEC50: −log10 of the molar value.

Molecular target: GLP-1R (Homo sapiens, UniProt P43220)
Experiment: GLP-1R Activation - cAMP Assay
Type: cell-based
Settings: each compound run on one of the two cAMP assays (Assay 1 or Assay 2, not specified)
How it was run: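 CHO cells stably expressing GLP-1R, plated at 1,000 cells/well overnight, then equilibrated 1 h in HBSS with 20 mM Hepes and 0.1% BSA. Agonist added as 10-point dose response for 30 min at 37 °C. cAMP measured by HTRF (Cisbio Gs Dynamic kit); EC50 from sigmoidal fit.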

[1] = cAMP increase in CHO cells stably expressing GLP-1R

GLP-1R, sequence (P43220 24-463): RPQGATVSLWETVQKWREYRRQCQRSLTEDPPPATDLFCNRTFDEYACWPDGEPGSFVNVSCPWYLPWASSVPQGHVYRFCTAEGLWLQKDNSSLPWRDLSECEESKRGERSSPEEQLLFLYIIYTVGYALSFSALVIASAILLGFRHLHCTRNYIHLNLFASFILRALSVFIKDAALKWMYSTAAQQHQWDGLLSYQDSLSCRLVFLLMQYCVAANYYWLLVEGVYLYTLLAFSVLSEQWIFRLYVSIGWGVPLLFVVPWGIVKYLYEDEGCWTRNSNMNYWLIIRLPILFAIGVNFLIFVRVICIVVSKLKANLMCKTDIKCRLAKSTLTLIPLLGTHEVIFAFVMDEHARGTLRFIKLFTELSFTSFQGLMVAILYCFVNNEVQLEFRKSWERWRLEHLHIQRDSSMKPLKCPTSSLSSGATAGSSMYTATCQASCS

Compound	pEC50 [1]	pEC50 ([…])
CC1(C)COC[C@H]1n1c(Cc2c(F)cc(-c3ccc(F)c(OCc4ccc(F)cc4)n3)c(F)c2F)nc2ccc(C(=O)O)cc21 [Example 558, (S)-1-(4,4-dimethyltetrahydrofuran-3-yl)-2-(2,3,6-trifluoro-4-(5-fluoro-6-((4-fluorobenzyl)oxy)pyridin-2-yl)benzyl)-1H-benzo[d]imidazole-6-carboxylic acid]	9.88	
CC1(C)COC[C@H]1n1c(Cc2cc(F)c(-c3cccc(OCc4ccc(C(F)F)cc4)n3)cc2F)nc2ccc(C(=O)O)cc21 [Example 357, (S)-2-(4-(6-((4-(difluoromethyl)benzyl)oxy)pyridin-2-yl)-2,5-difluorobenzyl)-1-(4,4-dimethyltetrahydrofuran-3-yl)-1H-benzo[d]imidazole-6-carboxylic acid]	9.77	
CC1(C)COC[C@H]1n1c(Cn2cc(F)c(-c3cccc(OCc4ccc(Cl)cc4F)n3)cc2=O)nc2c(F)cc(C(=O)O)cc21 [Example 137, (S)-2-((6-((4-chloro-2-fluorobenzyl)oxy)-5′-fluoro-2′-oxo-[2,4′-bipyridin]-1′(2′H)-yl)methyl)-1-(4,4-dimethyltetrahydrofuran-3-yl)-4-fluoro-1H-benzo[d]imidazole-6-carboxylic Acid]	10.41	
COCCn1c(Cc2cc(F)c(-c3ccc(F)c(OCc4cnc(-n5ccnn5)cc4Cl)c3)cc2F)nc2ccc(C(=O)O)cc21 [Example 390, 2-((3′-((4-chloro-6-(1H-1,2,3-triazol-1-yl)pyridin-3-yl)methoxy)-2,4′,5-trifluoro-[1,1′-biphenyl]-4-yl)methyl)-1-(2-methoxyethyl)-1H-benzo[d]imidazole-6-carboxylic acid]	8.51	
COCCn1c(Cc2cc(F)c(-c3cccc(OCc4ccc(C#N)cc4)n3)cc2F)nc2ccc(C(=O)O)c(F)c21 [Example 375, 2-(4-(6-((4-cyanobenzyl)oxy)pyridin-2-yl)-2,5-difluorobenzyl)-7-fluoro-1-(2-methoxyethyl)-1H-benzo[d]imidazole-6-carboxylic acid]	9.57	
CC1(C)COC[C@H]1n1c(Cc2cc(F)c(-c3ccc(F)c(OCc4ccc(-n5ccnn5)cc4)n3)cc2F)nc2ccc(C(=O)O)cc21 [Example 181, (S)-2-(4-(6-((4-(1H-1,2,3-triazol-1-yl)benzyl)oxy)-5-fluoropyridin-2-yl)-2,5-difluorobenzyl)-1-(4,4-dimethyltetrahydrofuran-3-yl)-1H-benzo[d]imidazole-6-carboxylic Acid]	10.60	
COCCn1c(Cc2nc(N)c(-c3cccc(OCc4ccc(C#N)cc4F)n3)cc2F)nc2ccc(C(=O)O)cc21 [Example 49]	7.34	
O=C(O)c1ccc2nc(Cc3cc(F)c(-c4cccc(OCc5ccc(Cl)cc5F)n4)cc3F)n(C34COCC(C3)C4)c2c1 [Example 406, 1-(3-oxabicyclo[3.1.1]heptan-1-yl)-2-(4-(6-((4-chloro-2-fluorobenzyl)oxy)pyridin-2-yl)-2,5-difluorobenzyl)-1H-benzo[d]imidazole-6-carboxylic acid]	7.97	
N#Cc1ccc(COc2cccc(-c3cc(F)c(Cc4nc5ccc(C(=O)O)cc5n4C4CCS(=O)(=O)C4)cc3F)n2)c(F)c1 (stereo not shown) [Example 81, 2-(4-(6-((4-cyano-2-fluorobenzyl)oxy)pyridin-2-yl)-2,5-difluorobenzyl)-1-(1,1-dioxidotetrahydrothiophen-3-yl)-1H-benzo[d]imidazole-6-carboxylic Acid]	7.39	
CC1(C)COCC1n1c(Cc2cc(F)c(-c3ccc(F)c(OCc4ccc(C#N)cc4F)n3)cc2Cl)nc2c(F)cc(C(=O)O)cc21 (stereo not shown) [Example 346, 2-(2-chloro-4-(6-((4-cyano-2-fluorobenzyl)oxy)-5-fluoropyridin-2-yl)-5-fluorobenzyl)-1-(4,4-dimethyltetrahydrofuran-3-yl)-4-fluoro-1H-benzo[d]imidazole-6-carboxylic acid]	10.12	
CC(C)COCCn1c(Cc2cc(F)c(-c3cccc(OCc4cnc(-n5ccnn5)cc4Cl)n3)cc2F)nc2ccc(C(=O)O)cc21 [Example 569, 2-(4-(6-((4-chloro-6-(1H-1,2,3-triazol-1-yl)pyridin-3-yl)methoxy)pyridin-2-yl)-2,5-difluorobenzyl)-1-(2-isobutoxyethyl)-1H-benzo[d]imidazole-6-carboxylic acid]	9.01	
CC1(C)COC[C@H]1n1c(Cc2cc(F)c(-c3cccc(OCc4ccc(C(F)(F)F)cc4F)n3)cc2F)nc2c(F)cc(C(=O)O)cc21 [Example 169, (S)-2-(2,5-difluoro-4-(6-((2-fluoro-4-(trifluoromethyl)benzyl)oxy)pyridin-2-yl)benzyl)-1-(4,4-dimethyltetrahydrofuran-3-yl)-4-fluoro-1H-benzo[d]imidazole-6-carboxylic Acid]	9.77	
CC(=O)N1[C@@H](Cn2c(Cc3cc(F)c(-c4cccc(OCc5ccc(C#N)cc5F)n4)cc3F)nc3ccc(C(=O)O)cc32)C[C@H]2C[C@H]21 [Example 150, 1-(((1R,3R,5R)-2-acetyl-2-azabicyclo[3.1.0]hexan-3-yl)methyl)-2-(4-(6-((4-cyano-2-fluorobenzyl)oxy)pyridin-2-yl)-2,5-difluorobenzyl)-1H-benzo[d]imidazole-6-carboxylic Acid]		10.20
COCCn1c(Cc2cc(F)c(-c3cccc(OCc4cnc(Cl)cn4)n3)cc2F)nc2ccc(C(=O)O)cc21 [Example 24, 2-(4-(6-((5-chloropyrazin-2-yl)methoxy)pyridin-2-yl)-2,5-difluorobenzyl)-1-(2-methoxyethyl)-1H-benzo[d]imidazole-6-carboxylic Acid]	8.00	
Cn1nnc2cc(COc3cccc(-c4cc(F)c(Cc5nc6ccc(C(=O)O)cc6n5C[C@@H]5CCO5)cc4F)n3)ccc21 [Example 523, (S)-2-(2,5-difluoro-4-(6-((1-methyl-1H-benzo[d][1,2,3]triazol-5-yl)methoxy)pyridin-2-yl)benzyl)-1-(oxetan-2-ylmethyl)-1H-benzo[d]imidazole-6-carboxylic acid]	9.44	
C[C@H]1COC[C@H]1n1c(Cc2cc(F)c(-c3ccc(F)c(OCc4ccc(C#N)cc4)n3)cc2F)nc2ccc(C(=O)O)cc21 [Example 480, 2-(4-(6-((4-cyanobenzyl)oxy)-5-fluoropyridin-2-yl)-2,5-difluorobenzyl)-1-((3S,4R)-4-methyltetrahydrofuran-3-yl)-1H-benzo[d]imidazole-6-carboxylic acid]	9.65	
CC1(C)COC[C@H]1n1c(Cc2cc(F)c(-c3cccc(OCc4ccc(C#N)cc4)n3)cc2F)nc2cc(F)c(C(=O)O)cc21 [Example 418, (S)-2-(4-(6-((4-cyanobenzyl)oxy)pyridin-2-yl)-2,5-difluorobenzyl)-1-(4,4-dimethyltetrahydrofuran-3-yl)-5-fluoro-1H-benzo[d]imidazole-6-carboxylic acid]	9.70	
O=C(O)c1ccc2nc(Cc3cc(F)c(-c4cccc(OCc5ccc(Cl)cc5F)n4)cc3F)n(C3COC4CC3C4)c2c1 (racemic) [Example 407, 1-((4R)-2-oxabicyclo[3.1.1]heptan-4-yl)-2-(4-(6-((4-chloro-2-fluorobenzyl)oxy)pyridin-2-yl)-2,5-difluorobenzyl)-1H-benzo[d]imidazole-6-carboxylic acid]	9.38	
N#Cc1ccc(COc2cccc(-c3cc(F)c(Cc4nc5ccc(C(=O)O)cc5n4[C@H]4CO[C@H]5OCC[C@H]54)cc3F)n2)c(F)c1 [Example 20, 2-(4-(6-((4-cyano-2-fluorobenzyl)oxy)pyridin-2-yl)-2,5-difluorobenzyl)-1-((3R,3aS,6aR)-hexahydrofuro[2,3-b]furan-3-yl)-1H-benzo[d]imidazole-6-carboxylic Acid]	9.46	
CO[C@H]1CN(C(C)=O)C[C@@H]1n1c(Cc2cc(F)c(-c3cccc(OCc4ccc(C#N)cc4F)n3)cc2F)nc2ccc(C(=O)O)cc21 [Example 16, 1-((3S,4S)-1-acetyl-4-methoxypyrrolidin-3-yl)-2-(4-(6-((4-cyano-2-fluorobenzyl)oxy)pyridin-2-yl)-2,5-difluorobenzyl)-1H-benzo[d]imidazole-6-carboxylic Acid]		5.32
CC1(C)COC[C@H]1n1c(Cc2cc(F)c(-c3cccc(OCc4ccc(Cl)cc4F)c3)cc2F)nc2ccc(C(=O)O)cc21 [Example 508, (S)-2-((3′-((4-chloro-2-fluorobenzyl)oxy)-2,5-difluoro-[1,1′-biphenyl]-4-yl)methyl)-1-(4,4-dimethyltetrahydrofuran-3-yl)-1H-benzo[d]imidazole-6-carboxylic acid]	9.52	
COC[C@@H]1COC[C@@H]1n1c(Cc2cc(F)c(-c3cccc(OCc4ccc(C#N)cc4F)n3)cc2F)nc2ccc(C(=O)O)cc21 (single isomer, unassigned) [Example 176B]	9.13	
COCCn1c(Cc2cc(F)c(-c3cccc(OCc4ccc(-n5ccnn5)nc4)n3)cc2F)nc2c(F)cc(C(=O)O)cc21 [Example 221, 2-(4-(6-((6-(1H-1,2,3-triazol-1-yl)pyridin-3-yl)methoxy)pyridin-2-yl)-2,5-difluorobenzyl)-4-fluoro-1-(2-methoxyethyl)-1H-benzo[d]imidazole-6-carboxylic acid]	9.29	
CC1(C)COC[C@H]1n1c(Cc2cc(F)c(-c3ccc(F)c(OCc4ccc(C#N)cc4)n3)cc2F)nc2ccc(C(=O)O)nc21 [Example 396, (S)-2-(4-(6-((4-cyanobenzyl)oxy)-5-fluoropyridin-2-yl)-2,5-difluorobenzyl)-3-(4,4-dimethyltetrahydrofuran-3-yl)-3H-imidazo[4,5-b]pyridine-5-carboxylic acid]	9.80	
CC1(C)COCC1n1c(Cc2cc(F)c(-c3cccc(OCc4ccc(C#N)cc4F)n3)cc2F)nc2ccc(C(=O)O)c(F)c21 (stereo not shown) [Example 165, 2-(4-(6-((4-cyano-2-fluorobenzyl)oxy)pyridin-2-yl)-2,5-difluorobenzyl)-1-(4,4-dimethyltetrahydrofuran-3-yl)-7-fluoro-1H-benzo[d]imidazole-6-carboxylic Acid]	9.26	
